Drawing on ChEMBL document CHEMBL4385643, “Design of a brain-penetrant CDK4/6 inhibitor for glioblastoma” (Bioorg Med Chem Lett, 2019), this text covers inhibition for two compounds.

In experiment [1] the target is Ribosomal protein S6 kinase alpha-2 (Homo sapiens) (UniProt Q15349). Briefly: Inhibition of recombinant full length human GST-tagged RSK3 expressed in insect expression system at 0.1 uM using serine/threonine-6 peptide as substrate incubated for 60 mins by Z'-LYTE assay relative to control.
Experiment [2] addresses Activin receptor type-1B (Homo sapiens) (UniProt P36896). The experiment can be described thus: Inhibition of recombinant human GST-tagged ACVR1B catalytic domain (150 to 505 residues) expressed in baculovirus expression system at 0.1 uM using serine/threonine-16 peptide as substrate incubated for 60 mins by Z'-LYTE assay relative to control.
Experiment [3] concerns the target DNA-dependent protein kinase catalytic subunit (Homo sapiens) (UniProt P78527). The experiment can be described thus: Inhibition of recombinant human DNA-PK expressed in baculovirus expression system at 0.1 uM using serine/threonine-26 peptide as substrate incubated for 60 mins by Z'-LYTE assay relative to control.
Experiment [4] concerns the target Macrophage-stimulating protein receptor (Homo sapiens) (UniProt Q04912). Briefly: Inhibition of recombinant human GST-tagged RON catalytic domain (983 to 1400 residues) expressed in baculovirus expression system at 0.1 uM using tyrosine-6 peptide as substrate incubated for 60 mins by Z'-LYTE assay relative to control.
For experiment [5], the target named is NUAK family SNF1-like kinase 1 (Homo sapiens) (UniProt O60285). Briefly: Inhibition of recombinant full length human His-tagged ARK5 expressed in baculovirus expression system at 0.1 uM using CHKtide peptide as substrate incubated for 60 mins by Adapta assay relative to control.
Experiment [6] addresses Dual specificity protein kinase CLK4 (Homo sapiens) (UniProt Q9HAZ1). Briefly: Inhibition of tracer 236 binding to recombinant full length human GST-tagged CLK4 expressed in baculovirus expression system at 0.1 uM measured after 60 mins by Lanthascreen assay relative to control.
The target of experiment [7] is Serine/threonine-protein kinase Nek6 (Homo sapiens) (UniProt Q9HC98). Briefly: Inhibition of recombinant full length human GST-tagged NEK6 expressed in insect expression system at 0.1 uM using serine/threonine-22 peptide as substrate incubated for 60 mins by Z'-LYTE assay relative to control.
Experiment [8] deals with Cyclin-dependent kinase 14/Cyclin-Y (Homo sapiens) (UniProt O94921+Q8ND76). The experiment can be described thus: Inhibition of tracer 236 binding to recombinant human GST-tagged CDK14/cyclin Y catalytic domain (CDK14: full length, Cyclin Y: 2 to end) expressed by baculovirus in Sf9 insect cells expression system at 0.1 uM measured after 60 mins by Lanthascreen assay relative to control.

For experiment [9], the target named is Mitogen-activated protein kinase kinase kinase 5 (Homo sapiens) (UniProt Q99683). The experiment can be described thus: Inhibition of tracer 236 binding to recombinant full length human GST-tagged ASK1 expressed in baculovirus expression system at 0.1 uM measured after 60 mins by Lanthascreen assay relative to control.
Experiment [10] deals with Insulin receptor (Homo sapiens) (UniProt P06213). The experiment can be described thus: Inhibition of recombinant human GST-tagged INSR (1011 to 1382 residues) expressed in baculovirus expression system at 0.1 uM using tyrosine-1 peptide as substrate incubated for 60 mins by Z'-LYTE assay relative to control.
The target of experiment [11] is Serine/threonine-protein kinase Sgk1 (Homo sapiens) (UniProt O00141). The experiment can be described thus: Inhibition of recombinant human GST-tagged SGK1 catalytic domain (60 to 431 residues) expressed in baculovirus expression system at 0.1 uM using serine/threonine-6 peptide as substrate incubated for 60 mins by Z'-LYTE assay relative to control.
The target of experiment [12] is Myosin light chain kinase, smooth muscle (Homo sapiens) (UniProt Q15746). Briefly: Inhibition of tracer 236 binding to recombinant full length human GST-tagged MYLK expressed in baculovirus expression system at 0.1 uM measured after 60 mins by Lanthascreen assay relative to control.
In experiment [13] the target is Serine/threonine-protein kinase TAO2 (Homo sapiens) (UniProt Q9UL54). The experiment can be described thus: Inhibition of recombinant human GST-tagged TAO2 catalytic domain (1 to 314 residues) expressed in baculovirus expression system at 0.1 uM using serine/threonine-7 peptide as substrate incubated for 60 mins by Z'-LYTE assay relative to control.
Experiment [14] concerns the target Casein kinase II subunit alpha (Homo sapiens) (UniProt P68400). Briefly: Inhibition of recombinant full length human His-tagged CK2 alpha 1 expressed in baculovirus expression system at 0.1 uM using serine/threonine-11 peptide as substrate incubated for 60 mins by Z'-LYTE assay relative to control.
Experiment [15] has as its target Serine/threonine-protein kinase MARK1 (Homo sapiens) (UniProt Q9P0L2). The experiment can be described thus: Inhibition of recombinant full length human GST-tagged MARK1 expressed in baculovirus expression system at 0.1 uM using serine/threonine-21 peptide as substrate incubated for 60 mins by Z'-LYTE assay relative to control.
For experiment [16], the target named is Dual specificity tyrosine-phosphorylation-regulated kinase 1A (Homo sapiens) (UniProt Q13627). The experiment can be described thus: Inhibition of recombinant full length human GST-tagged DYRK1A expressed in baculovirus expression system at 0.1 uM using serine/threonine-18 peptide as substrate incubated for 60 mins by Z'-LYTE assay relative to control.
Experiment [17] concerns the target CDK8/Cyclin C (Homo sapiens) (UniProt P49336+P24863). The experiment can be described thus: Inhibition of tracer 236 binding to recombinant full length human His-tagged CDK8/cyclin C expressed in baculovirus expression system at 0.1 uM measured after 60 mins by Lanthascreen assay.
Experiment [18] concerns the target Phosphatidylinositol 4,5-bisphosphate 3-kinase catalytic subunit gamma isoform (Homo sapiens) (UniProt P48736). Briefly: Inhibition of recombinant human GST-tagged PI3Kgamma catalytic domain (468 to 1203 residues) expressed in insect expression system at 0.1 uM using PI Lipid Kinase as substrate incubated for 60 mins by Adapta assay relative to control.
Experiment [19] deals with Wee1-like protein kinase (Homo sapiens) (UniProt P30291). Briefly: Inhibition of tracer 178 binding to recombinant full length human GST-tagged WEE1 expressed in baculovirus expression system at 0.1 uM measured after 60 mins by Lanthascreen assay relative to control.
Experiment [20] deals with CDK17/Cyclin-Y (Homo sapiens) (UniProt Q00537+Q8ND76). The experiment can be described thus: Inhibition of recombinant full length human GST-tagged CDK17/Cyclin Y (2 to end amino acids) expressed in insect expression system at 0.1 uM using serine/threonine-12 peptide as substrate incubated for 60 mins by Z'-LYTE assay relative to control.
Experiment [21] addresses Mitogen-activated protein kinase kinase kinase kinase 5 (Homo sapiens) (UniProt Q9Y4K4). The experiment can be described thus: Inhibition of recombinant full length human GST-tagged KHS1 expressed in baculovirus expression system at 0.1 uM using serine/threonine-7 peptide as substrate incubated for 60 mins by Z'-LYTE assay relative to control.
Experiment [22] has as its target Ribosomal protein S6 kinase alpha-1 (Homo sapiens) (UniProt Q15418). Briefly: Inhibition of recombinant full length human His-tagged RSK1 expressed in baculovirus expression system at 0.1 uM using serine/threonine-6 peptide as substrate incubated for 60 mins by Z'-LYTE assay relative to control.
Experiment [23] has as its target Serine/threonine-protein kinase NLK (Homo sapiens) (UniProt Q9UBE8). The experiment can be described thus: Inhibition of tracer 178 binding to recombinant full length human GST-tagged NLK expressed by baculovirus expression system at 0.1 uM measured after 60 mins by Lanthascreen assay relative to control.

Molecules are shown by their SMILES.

Wee1-like protein kinase (Homo sapiens), sequence (P30291 whole entry, looked up): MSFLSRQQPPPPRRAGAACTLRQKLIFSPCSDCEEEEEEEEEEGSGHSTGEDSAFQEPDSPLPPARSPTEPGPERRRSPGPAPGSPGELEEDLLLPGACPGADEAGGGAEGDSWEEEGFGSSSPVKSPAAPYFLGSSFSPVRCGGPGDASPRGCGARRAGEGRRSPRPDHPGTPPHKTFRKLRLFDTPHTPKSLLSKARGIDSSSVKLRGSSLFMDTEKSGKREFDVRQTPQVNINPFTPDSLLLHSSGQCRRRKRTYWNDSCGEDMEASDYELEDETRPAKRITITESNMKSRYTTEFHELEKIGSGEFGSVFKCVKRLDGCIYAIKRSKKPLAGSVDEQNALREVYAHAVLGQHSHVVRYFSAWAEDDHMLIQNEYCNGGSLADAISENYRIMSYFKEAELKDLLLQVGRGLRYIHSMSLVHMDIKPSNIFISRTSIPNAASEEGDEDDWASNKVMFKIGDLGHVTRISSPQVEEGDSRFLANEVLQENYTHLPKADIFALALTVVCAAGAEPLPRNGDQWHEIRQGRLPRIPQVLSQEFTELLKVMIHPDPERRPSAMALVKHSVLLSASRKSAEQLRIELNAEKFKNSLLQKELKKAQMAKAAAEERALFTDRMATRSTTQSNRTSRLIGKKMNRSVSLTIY
Serine/threonine-protein kinase TAO2 (Homo sapiens), sequence (Q9UL54 whole entry, the tested form may be a part): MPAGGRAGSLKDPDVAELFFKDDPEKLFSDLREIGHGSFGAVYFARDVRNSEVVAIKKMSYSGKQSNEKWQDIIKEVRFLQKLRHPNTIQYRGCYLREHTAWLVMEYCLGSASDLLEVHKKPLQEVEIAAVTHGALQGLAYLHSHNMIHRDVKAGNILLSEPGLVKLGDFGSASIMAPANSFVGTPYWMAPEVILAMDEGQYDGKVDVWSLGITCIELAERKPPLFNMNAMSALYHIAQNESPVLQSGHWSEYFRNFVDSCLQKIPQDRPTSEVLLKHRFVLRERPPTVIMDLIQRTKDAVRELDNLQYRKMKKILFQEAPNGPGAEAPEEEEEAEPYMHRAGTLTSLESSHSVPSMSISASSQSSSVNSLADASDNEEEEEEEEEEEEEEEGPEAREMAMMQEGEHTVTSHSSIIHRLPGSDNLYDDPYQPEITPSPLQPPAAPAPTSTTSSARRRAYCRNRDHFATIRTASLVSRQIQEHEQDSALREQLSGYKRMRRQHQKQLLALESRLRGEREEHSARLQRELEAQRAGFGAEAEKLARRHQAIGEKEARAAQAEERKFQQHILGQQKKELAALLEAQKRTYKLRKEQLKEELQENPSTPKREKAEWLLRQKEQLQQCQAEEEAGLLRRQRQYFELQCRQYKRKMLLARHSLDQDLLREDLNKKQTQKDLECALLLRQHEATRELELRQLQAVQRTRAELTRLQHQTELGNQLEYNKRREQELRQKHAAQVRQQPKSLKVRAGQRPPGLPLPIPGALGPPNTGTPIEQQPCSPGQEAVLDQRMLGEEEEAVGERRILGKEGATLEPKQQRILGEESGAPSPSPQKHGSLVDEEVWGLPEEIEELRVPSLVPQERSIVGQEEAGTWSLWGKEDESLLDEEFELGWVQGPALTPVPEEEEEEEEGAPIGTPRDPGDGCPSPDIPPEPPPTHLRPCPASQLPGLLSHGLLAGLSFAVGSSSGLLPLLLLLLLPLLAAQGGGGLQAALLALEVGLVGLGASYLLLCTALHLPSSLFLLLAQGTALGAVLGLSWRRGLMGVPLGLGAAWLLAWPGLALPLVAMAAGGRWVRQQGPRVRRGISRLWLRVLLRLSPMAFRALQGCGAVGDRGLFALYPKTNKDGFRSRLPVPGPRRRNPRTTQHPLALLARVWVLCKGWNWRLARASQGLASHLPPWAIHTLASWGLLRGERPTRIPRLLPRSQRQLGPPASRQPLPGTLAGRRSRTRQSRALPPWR
Serine/threonine-protein kinase MARK1 (Homo sapiens), sequence (Q9P0L2 whole entry, looked up): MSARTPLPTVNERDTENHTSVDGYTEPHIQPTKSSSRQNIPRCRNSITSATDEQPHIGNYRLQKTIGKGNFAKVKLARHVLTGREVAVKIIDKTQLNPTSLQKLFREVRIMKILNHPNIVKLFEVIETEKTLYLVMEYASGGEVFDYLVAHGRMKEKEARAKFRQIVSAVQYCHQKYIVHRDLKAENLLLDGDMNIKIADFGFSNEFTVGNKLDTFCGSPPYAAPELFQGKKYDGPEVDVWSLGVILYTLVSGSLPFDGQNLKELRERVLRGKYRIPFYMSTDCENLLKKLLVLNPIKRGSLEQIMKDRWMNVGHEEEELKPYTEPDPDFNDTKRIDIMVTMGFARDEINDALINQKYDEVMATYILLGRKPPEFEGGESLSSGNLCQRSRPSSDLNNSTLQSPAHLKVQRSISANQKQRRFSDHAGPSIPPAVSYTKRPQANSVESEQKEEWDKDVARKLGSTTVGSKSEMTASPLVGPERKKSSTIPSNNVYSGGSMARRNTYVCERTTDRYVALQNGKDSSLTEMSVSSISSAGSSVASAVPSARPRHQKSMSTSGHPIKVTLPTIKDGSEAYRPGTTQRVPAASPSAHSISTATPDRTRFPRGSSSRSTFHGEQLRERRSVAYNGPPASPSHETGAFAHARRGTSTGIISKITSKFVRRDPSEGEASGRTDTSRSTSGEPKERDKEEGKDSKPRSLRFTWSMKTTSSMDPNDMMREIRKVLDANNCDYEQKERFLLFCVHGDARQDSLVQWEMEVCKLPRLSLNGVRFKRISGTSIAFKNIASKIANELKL
NUAK family SNF1-like kinase 1 (Homo sapiens), sequence (O60285 whole entry): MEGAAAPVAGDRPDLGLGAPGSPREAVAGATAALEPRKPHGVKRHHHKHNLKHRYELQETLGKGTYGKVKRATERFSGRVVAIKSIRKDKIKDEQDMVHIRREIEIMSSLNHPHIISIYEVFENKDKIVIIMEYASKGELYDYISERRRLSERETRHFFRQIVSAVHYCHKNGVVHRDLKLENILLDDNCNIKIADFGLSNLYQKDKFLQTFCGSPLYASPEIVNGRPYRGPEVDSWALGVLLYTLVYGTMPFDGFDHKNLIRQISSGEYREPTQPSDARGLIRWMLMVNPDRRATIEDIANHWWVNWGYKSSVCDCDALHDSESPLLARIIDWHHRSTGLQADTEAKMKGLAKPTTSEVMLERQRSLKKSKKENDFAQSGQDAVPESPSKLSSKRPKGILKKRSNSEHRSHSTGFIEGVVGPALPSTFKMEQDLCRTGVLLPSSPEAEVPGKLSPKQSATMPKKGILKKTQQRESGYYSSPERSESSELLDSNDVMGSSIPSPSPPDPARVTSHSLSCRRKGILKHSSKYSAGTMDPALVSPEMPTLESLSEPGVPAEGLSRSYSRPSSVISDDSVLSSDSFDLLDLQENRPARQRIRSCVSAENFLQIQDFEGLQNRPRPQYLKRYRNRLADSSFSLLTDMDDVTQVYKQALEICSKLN
Casein kinase II subunit alpha (Homo sapiens), sequence (P68400 whole entry, looked up): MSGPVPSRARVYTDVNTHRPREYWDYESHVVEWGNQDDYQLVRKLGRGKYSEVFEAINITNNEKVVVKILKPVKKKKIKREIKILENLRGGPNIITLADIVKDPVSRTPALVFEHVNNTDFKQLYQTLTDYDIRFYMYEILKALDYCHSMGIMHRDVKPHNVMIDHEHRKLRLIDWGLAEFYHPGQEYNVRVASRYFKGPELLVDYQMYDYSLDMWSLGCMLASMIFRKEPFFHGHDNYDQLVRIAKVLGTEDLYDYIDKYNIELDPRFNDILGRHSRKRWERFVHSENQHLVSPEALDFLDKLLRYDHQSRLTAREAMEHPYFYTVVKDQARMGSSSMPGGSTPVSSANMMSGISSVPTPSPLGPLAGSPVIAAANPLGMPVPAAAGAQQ
Phosphatidylinositol 4,5-bisphosphate 3-kinase catalytic subunit gamma isoform (Homo sapiens), sequence (P48736 whole entry, looked up, the tested form may be a part, canonical isoform): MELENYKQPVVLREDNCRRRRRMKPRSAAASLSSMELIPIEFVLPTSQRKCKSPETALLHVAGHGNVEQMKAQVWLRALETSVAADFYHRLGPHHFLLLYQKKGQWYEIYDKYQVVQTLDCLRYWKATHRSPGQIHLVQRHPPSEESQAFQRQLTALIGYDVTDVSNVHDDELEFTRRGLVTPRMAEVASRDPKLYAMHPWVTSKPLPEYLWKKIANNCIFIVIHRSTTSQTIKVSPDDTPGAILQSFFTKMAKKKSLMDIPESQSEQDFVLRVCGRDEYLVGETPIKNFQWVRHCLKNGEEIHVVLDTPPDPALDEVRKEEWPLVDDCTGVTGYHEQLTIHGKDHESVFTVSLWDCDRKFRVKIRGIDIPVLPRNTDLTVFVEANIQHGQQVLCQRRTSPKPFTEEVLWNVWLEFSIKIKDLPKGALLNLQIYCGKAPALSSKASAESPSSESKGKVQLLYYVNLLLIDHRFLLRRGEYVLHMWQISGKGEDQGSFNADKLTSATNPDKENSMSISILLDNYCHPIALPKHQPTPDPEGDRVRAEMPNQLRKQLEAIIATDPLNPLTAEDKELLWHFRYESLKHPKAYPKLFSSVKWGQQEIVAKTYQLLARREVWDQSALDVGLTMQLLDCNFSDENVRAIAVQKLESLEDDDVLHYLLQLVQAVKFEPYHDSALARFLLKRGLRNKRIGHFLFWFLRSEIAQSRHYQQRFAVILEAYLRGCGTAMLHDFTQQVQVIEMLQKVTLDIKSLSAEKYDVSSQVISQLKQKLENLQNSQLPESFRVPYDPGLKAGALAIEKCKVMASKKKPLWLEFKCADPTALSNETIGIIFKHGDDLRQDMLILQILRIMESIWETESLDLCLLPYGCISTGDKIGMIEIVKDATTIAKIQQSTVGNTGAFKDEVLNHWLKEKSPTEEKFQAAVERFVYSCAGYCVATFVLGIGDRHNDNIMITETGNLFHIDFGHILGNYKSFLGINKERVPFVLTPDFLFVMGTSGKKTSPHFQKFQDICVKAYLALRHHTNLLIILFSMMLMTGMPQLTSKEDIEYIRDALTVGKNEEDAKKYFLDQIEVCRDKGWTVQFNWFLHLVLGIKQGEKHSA

Take `CCN1CCN(Cc2ccc(Nc3ncc(F)c(-c4cc(F)c5nc(C)n(C(C)C)c5c4)n3)nc2)CC1` [ABEMACICLIB]: the inhibition in experiment [1] was 19.5%; in experiment [2] it was -2%; in experiment [3], 14%; in experiment [4], 10.5%; in experiment [5] it was 22.7%; in [6], 97.7%. Moreover, the inhibition in experiment [7] was found to be 3.5%; in experiment [8], 56%; in experiment [9], 4.3%; in experiment [10] it was 3.5%; in [11], 64%; in [12], 14.7%. In addition, the inhibition is 56% in experiment [13]; 31.5% in [14]; 6% in experiment [15]; 92.5% in experiment [16]; 24.2% in [17]; -6.3% in experiment [18]. The inhibition was determined as 5.5% in experiment [19]; 58% in experiment [20]; 27.3% in experiment [21]; 8% in experiment [22]; 2.2% in experiment [23].

On to `CCN1CC2(C1)CN(c1ccc(Nc3ncc(F)c(-c4cnn5c4[C@H](C)CCCC5)n3)nc1)C2`, for which the inhibition in experiment [1] was 58.5%; in [2], -4%; in [3], 6%; in experiment [4], 7%; in experiment [5], 92%; in experiment [6] it was 95%. The inhibition in [7] is 3.5%; in [8], 41.5%; in [9] it was 7%; in [10], -1.5%; in experiment [11], 72.5%; in [12], 5.5%. The inhibition in [13] worked out at 12.5%; in [14], 0.5%; in experiment [15], 16.5%; in experiment [16], 26.5%; in experiment [17] it was 75%; in experiment [18], 2%. Also, the inhibition in experiment [19] was determined as 11%; in experiment [20], 61.5%; in experiment [21], 22%; in experiment [22] it was 19.5%; in [23], 22.5%.
